# Values of other authors as cited in article PMC9851200, “Multiparameter phenotypic screening for endogenous TFEB and TFE3 translocation identifies novel chemical series modulating lysosome function” (Autophagy, 2022).
# Experiments:
# Set-up in all cases: method as in original PKIS2 published data
# [1] = target: kinases (KINOMEscan panel) (Homo sapiens, UniProt Q96NX5); conditions: CAMK1G; Published KINOMEscan; ref original PKIS2 published data; cited from earlier work
# [2] = target: kinases (KINOMEscan panel) (Homo sapiens, UniProt P53671); conditions: LIMK2; Published KINOMEscan; ref original PKIS2 published data; cited from earlier work
# [3] = target: kinases (KINOMEscan panel) (Homo sapiens, UniProt Q13554); conditions: kinase CAMK2B; Published KINOMEscan; ref original PKIS2 published data; cited from earlier work
# [4] = target: kinases (KINOMEscan panel) (Homo sapiens, UniProt P09619); conditions: Published KINOMEscan; ref original PKIS2 published data; cited from earlier work
# [5] = target: kinases (KINOMEscan panel) (Homo sapiens, UniProt P16234); conditions: PDGFRA; Published KINOMEscan; ref original PKIS2 published data; cited from earlier work
# [6] = target: T1, kinases (KINOMEscan panel) (Homo sapiens, UniProt O14730); conditions: RIOK3; Published KINOMEscan; ref original PKIS2 published data; cited from earlier work
# T1 sequence (O14730 1-519): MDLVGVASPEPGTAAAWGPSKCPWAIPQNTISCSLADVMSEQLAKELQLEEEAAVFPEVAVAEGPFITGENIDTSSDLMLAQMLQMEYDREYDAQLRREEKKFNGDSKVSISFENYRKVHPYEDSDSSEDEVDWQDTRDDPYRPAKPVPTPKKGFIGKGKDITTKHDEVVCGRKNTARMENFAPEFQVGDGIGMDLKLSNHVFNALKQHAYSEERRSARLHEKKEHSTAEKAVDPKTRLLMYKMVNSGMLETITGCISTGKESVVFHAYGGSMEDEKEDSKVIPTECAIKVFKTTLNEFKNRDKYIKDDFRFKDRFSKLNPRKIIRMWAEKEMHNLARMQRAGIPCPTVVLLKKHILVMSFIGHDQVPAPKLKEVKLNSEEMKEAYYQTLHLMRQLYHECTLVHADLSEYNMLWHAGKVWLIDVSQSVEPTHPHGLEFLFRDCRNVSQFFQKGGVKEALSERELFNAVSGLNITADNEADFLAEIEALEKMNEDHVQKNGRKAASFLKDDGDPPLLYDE
# [7] = target: T2, kinases (KINOMEscan panel) (Homo sapiens, UniProt Q8IWQ3); conditions: kinase BRSK2; Published KINOMEscan; ref original PKIS2 published data; cited from earlier work
# T2 sequence (Q8IWQ3 1-736): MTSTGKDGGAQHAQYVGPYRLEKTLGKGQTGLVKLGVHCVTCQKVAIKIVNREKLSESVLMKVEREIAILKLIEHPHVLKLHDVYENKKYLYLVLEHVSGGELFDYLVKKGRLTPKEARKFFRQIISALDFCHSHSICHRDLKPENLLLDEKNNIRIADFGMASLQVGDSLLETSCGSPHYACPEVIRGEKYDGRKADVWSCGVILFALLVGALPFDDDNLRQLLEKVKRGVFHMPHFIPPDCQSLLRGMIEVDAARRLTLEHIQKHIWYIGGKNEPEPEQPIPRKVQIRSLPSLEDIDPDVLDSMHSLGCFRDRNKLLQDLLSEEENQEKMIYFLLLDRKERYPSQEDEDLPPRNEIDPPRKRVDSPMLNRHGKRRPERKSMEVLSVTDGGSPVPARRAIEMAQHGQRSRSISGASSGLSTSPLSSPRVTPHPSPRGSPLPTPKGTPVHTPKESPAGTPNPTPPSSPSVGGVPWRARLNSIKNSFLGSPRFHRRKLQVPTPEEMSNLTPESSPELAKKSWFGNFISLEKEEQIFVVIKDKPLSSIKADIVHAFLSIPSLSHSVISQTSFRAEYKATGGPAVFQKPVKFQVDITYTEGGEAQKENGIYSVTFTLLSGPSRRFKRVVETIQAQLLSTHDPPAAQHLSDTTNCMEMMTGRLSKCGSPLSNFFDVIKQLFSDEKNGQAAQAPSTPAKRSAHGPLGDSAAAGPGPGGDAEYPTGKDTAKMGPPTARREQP
# [8] = target: T3, kinases (KINOMEscan panel) (Homo sapiens, UniProt Q9NRH2); conditions: kinase SNRK; Published KINOMEscan; ref original PKIS2 published data; cited from earlier work
# T3 sequence (Q9NRH2 1-765): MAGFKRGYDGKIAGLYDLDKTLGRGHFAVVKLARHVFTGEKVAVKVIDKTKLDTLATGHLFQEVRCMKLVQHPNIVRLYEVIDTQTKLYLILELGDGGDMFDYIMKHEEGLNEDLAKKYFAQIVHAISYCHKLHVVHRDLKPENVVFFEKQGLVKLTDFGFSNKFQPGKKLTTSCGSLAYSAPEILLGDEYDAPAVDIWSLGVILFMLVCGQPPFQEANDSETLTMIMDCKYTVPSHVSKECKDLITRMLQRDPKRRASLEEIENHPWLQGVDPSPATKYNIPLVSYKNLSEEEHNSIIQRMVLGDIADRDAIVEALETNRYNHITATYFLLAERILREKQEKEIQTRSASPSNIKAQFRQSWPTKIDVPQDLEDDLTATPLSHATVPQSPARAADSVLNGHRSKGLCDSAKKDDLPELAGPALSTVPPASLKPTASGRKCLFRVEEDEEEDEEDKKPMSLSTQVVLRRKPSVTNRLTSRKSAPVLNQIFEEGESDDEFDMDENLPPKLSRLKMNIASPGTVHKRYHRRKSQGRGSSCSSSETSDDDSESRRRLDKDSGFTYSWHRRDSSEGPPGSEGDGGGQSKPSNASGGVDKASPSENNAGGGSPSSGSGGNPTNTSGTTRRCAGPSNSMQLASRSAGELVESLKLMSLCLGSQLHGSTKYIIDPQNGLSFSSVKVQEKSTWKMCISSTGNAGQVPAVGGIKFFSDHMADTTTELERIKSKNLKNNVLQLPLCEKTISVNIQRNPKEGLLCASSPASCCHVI
# [9] = target: kinases (KINOMEscan panel) (Homo sapiens, UniProt O94921); conditions: Published KINOMEscan; ref original PKIS2 published data; cited from earlier work
# Chain of kinases (KINOMEscan panel) (Homo sapiens, UniProt O94921) (O94921 whole entry): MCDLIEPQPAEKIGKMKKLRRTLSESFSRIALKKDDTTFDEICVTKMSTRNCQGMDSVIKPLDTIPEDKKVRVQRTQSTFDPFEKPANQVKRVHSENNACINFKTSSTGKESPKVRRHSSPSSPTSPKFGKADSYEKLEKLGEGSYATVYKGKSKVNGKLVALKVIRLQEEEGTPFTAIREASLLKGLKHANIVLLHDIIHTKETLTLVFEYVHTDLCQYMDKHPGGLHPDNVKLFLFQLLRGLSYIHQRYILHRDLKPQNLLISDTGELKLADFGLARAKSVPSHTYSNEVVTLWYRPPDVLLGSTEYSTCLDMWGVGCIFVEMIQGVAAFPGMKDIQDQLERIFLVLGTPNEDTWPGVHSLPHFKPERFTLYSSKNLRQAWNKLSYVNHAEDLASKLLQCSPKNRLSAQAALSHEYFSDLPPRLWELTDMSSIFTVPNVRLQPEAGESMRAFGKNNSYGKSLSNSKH
# Chain of kinases (KINOMEscan panel) (Homo sapiens, UniProt Q13554) (Q13554 whole entry): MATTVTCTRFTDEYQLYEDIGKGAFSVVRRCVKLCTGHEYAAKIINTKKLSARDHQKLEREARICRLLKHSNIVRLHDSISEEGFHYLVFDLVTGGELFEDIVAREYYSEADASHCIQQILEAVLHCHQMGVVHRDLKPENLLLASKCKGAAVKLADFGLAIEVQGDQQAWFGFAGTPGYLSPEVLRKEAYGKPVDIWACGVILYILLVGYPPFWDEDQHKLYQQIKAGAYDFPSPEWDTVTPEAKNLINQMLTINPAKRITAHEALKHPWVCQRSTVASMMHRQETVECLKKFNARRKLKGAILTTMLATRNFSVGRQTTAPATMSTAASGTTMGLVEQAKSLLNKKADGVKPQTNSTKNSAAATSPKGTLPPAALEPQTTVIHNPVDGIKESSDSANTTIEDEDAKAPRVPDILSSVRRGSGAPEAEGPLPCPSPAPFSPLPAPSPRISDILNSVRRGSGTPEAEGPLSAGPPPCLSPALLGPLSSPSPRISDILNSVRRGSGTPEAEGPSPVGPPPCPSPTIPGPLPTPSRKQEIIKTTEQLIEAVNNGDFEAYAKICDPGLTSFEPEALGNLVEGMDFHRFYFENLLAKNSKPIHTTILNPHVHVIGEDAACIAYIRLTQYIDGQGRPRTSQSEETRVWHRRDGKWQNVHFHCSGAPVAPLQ
# Chain of kinases (KINOMEscan panel) (Homo sapiens, UniProt P09619) (P09619 33-1106): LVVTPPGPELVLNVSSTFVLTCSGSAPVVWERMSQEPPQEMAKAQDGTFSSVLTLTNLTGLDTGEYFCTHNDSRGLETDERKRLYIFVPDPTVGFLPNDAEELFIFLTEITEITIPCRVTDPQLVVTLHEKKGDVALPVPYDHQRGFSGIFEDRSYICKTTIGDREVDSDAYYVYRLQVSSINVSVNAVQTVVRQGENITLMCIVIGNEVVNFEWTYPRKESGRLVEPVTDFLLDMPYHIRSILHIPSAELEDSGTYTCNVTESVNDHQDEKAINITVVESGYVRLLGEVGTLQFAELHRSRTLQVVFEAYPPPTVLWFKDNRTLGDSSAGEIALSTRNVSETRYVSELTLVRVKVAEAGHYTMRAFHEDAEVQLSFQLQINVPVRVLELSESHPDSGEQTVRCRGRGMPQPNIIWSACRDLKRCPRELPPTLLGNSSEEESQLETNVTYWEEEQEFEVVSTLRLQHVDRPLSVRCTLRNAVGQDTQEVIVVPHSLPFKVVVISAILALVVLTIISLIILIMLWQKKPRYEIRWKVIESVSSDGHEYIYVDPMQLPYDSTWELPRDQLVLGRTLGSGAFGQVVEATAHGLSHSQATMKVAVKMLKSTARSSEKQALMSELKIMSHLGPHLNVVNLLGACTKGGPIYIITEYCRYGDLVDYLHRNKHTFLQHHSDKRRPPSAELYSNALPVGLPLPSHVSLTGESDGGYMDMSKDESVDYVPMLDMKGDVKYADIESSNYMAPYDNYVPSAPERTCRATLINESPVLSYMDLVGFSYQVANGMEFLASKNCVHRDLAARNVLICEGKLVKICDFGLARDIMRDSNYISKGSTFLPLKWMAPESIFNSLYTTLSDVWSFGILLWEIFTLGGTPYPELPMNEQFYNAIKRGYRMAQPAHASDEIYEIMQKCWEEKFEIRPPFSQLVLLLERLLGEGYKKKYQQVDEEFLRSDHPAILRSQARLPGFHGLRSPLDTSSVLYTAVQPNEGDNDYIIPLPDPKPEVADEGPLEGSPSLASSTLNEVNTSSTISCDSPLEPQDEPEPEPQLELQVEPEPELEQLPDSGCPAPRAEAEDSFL
# Chain of kinases (KINOMEscan panel) (Homo sapiens, UniProt P53671) (P53671 whole entry): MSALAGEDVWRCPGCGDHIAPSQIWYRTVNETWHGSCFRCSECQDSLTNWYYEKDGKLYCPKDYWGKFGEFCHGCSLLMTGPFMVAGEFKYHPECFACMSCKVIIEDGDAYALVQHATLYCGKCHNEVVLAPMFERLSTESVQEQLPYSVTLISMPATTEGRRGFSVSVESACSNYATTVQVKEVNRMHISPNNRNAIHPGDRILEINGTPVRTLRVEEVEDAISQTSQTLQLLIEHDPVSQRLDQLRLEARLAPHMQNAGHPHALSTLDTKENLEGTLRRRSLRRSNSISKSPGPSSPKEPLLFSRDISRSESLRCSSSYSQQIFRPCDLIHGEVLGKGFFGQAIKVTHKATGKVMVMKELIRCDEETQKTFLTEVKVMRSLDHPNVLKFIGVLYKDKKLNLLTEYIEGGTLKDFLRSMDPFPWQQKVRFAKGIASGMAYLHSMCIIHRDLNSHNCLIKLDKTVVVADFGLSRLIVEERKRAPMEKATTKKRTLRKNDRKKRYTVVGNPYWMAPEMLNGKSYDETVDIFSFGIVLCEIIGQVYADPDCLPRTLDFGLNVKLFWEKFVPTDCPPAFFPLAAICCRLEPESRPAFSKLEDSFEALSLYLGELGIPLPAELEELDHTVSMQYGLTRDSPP
# Chain of kinases (KINOMEscan panel) (Homo sapiens, UniProt Q96NX5) (Q96NX5 whole entry): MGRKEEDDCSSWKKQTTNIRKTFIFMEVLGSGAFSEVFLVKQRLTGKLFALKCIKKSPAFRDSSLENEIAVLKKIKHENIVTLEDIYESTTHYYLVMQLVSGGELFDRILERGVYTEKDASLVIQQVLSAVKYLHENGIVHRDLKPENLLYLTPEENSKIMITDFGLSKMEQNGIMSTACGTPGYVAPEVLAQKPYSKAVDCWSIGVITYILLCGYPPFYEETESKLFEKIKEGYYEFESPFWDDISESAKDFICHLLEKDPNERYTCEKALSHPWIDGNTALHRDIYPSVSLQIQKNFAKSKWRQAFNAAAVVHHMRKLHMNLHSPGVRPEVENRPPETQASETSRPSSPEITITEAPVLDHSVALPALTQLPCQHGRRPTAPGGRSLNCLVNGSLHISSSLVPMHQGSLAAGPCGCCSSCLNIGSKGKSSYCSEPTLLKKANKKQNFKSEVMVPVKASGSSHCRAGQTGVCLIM
# Chain of kinases (KINOMEscan panel) (Homo sapiens, UniProt P16234) (P16234 24-1089): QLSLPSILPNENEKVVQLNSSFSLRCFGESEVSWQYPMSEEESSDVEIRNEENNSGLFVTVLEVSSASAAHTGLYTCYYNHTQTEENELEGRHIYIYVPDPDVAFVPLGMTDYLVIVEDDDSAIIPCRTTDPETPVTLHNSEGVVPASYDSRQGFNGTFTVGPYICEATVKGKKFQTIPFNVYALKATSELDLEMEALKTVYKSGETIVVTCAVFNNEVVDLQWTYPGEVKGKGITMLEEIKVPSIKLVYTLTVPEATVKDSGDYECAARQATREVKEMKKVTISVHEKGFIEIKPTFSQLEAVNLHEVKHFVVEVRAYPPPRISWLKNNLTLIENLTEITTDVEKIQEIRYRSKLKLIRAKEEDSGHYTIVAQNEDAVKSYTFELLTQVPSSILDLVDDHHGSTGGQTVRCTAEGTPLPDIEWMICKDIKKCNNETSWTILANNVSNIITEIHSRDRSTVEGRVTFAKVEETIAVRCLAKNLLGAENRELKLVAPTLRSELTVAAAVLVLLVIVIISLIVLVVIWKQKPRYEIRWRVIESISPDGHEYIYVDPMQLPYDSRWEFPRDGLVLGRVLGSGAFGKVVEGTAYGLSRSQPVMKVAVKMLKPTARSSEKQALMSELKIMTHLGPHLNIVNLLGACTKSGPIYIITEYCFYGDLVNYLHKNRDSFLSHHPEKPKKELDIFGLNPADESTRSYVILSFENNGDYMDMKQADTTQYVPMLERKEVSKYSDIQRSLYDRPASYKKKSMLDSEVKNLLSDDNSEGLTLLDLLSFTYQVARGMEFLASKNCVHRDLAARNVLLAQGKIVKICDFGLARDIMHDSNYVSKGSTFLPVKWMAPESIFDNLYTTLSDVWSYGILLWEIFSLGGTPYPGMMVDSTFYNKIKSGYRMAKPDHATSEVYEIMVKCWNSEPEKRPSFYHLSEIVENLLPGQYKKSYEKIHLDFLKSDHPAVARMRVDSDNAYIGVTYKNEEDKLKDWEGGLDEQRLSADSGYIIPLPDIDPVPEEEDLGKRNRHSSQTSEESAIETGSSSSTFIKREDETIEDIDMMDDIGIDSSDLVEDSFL
smiles,measurement,setting,value
Cc1cccc(-c2nc(Nc3ccncc3)c3ccccc3n2)n1 [NK215],KINOMEscan CAMK1G,[1],0
same,KINOMEscan LIMK2,[2],5
same,KINOMEscan CAMK2B,[3],0
same,KINOMEscan PDGFRB,[4],3
same,KINOMEscan PDGFRA,[5],0
same,KINOMEscan RIOK3,[6],35
same,KINOMEscan BRSK2,[7],11
same,KINOMEscan SNRK,[8],0
same,KINOMEscan CDK14,[9],0
